Data set [1] concerns spleen cells. Put plainly: Plaque Forming Cell Assay (inhibition rate of the antibody production). Particulars: Mus musculus, read-out: Inhibition rate (antibody production, PFC); for inhibition at 10 µM: Concentration 10^-5 M; for inhibition at 0.1 µM: Concentration 10^-7 M; for inhibition at 0.01 µM: Concentration 10^-8 M. The data set is classed as cell-based, Balb/c strain mice.

In data set [2] the test system is spleen cells. Described as above. In kind it is cell-based, Balb/c strain mice. Particulars: Mus musculus; Concentration 10^-6 M; read-out: Inhibition rate (antibody production, PFC). The method, then:
Plaque Forming Cell Assay
The plaque forming cell assay was carried out by the following manner with reference to the method of Jerne et al. [Science, 140, 405 (1963)] and the method of Yamamoto et al. [Drugs Experimental Clinical Research, III(1), 5 (1982)].
Male Balb/c strain mice (7-week-old) (Charles River Co.) were sensitized with 1×10^8 sheep erythrocytes (product of Biotest Research Institute) administered via the caudal vein, and the spleens were extirpated 6 or 7 days after the sensitization. The extirpated spleens were immersed in Hanks' solution (Nissui Seiyaku) to make a cell suspension, which was then filtered, followed by centrifugal separation at 1200 rpm for 5 minutes. After centrifugal separation, the supernatant was discarded and the precipitate was treated with Tris.NH4 Cl solution to remove the erythrocytes, and then washed three times with Hanks' solution. After discarding the supernatant, the cells were suspended in an RPMI-1640 medium (Nissui Seiyaku) containing 10% bovine fetal serum (Gibco Co.), 50 μg/ml of streptomycin (Meiji Seika), […] of penicillin (Meiji Seika) and 2-mercaptoethanol (5×10^-5 M). In each well of a micro culture plate (NUNK Co., Ltd., 24 wells) were put 2 ml of the mixture of the cell suspension containing 1×10^7 of spleen cells, 5×10^6 sheep erythrocites and a test compound solution (10^-6 M) obtained by diluting the test compound dissolved in dimethylsulfoxide (10^-2 M) with the above mentioned RPMI-1640, and the cells were cultured at 37° C. for 5 days.
After the completion of the culturing, the cells were subjected to centrifugal separation at 2000 rpm for 5 minutes, and the resulting supernatant was removed. The precipitate was suspended in 1 ml of Hanks' solution, again subjected to centrifugal separation, suspended in 1 ml of Hanks' solution, and then, 50 μl of the suspension and 50 μl of sheep erythrocytes were added to 400 μl of 0.25% agarose/Hanks' solution heated to 50° C. in advance, and the mixture was scattered on a glass slide, placed on a plaque assay plate, and together with guinea pig complement (Cedarlene Institute) diluted 40-fold with a phosphate buffer solution, incubated at 37° C. for 1 to 2 hours. The number of the appearing direct plaque cells (direct PFC count) in suspension was counted.
The inhibition rate of the antibody production of the test compound was determined by the following equation. [formula]
The compound used for comparison was 5,6-dihydro-9-fluoro-3-phenylbenz[c]acridine-7-carboxylic acid [Japanese Published Unexamined Patent Application No. 233661/90, hereinafter referred to as Compound (A)] represented by formula (A). [drawing 62]
PFC count in Control means PFC count in the absence of the test compound (dimethylsulfoxide alone).

A further data set has as its system dd mice. The experiment in a line: Acute toxicity. The data set is classed as in vivo. Particulars: mortality after 7 days. The method, then:
The test compound was administered to dd mice having a weight of 20 to 25 g per os (p.o.) and intraperitoneally (i.p.). MLD (minimum lethal dose) was evaluated by measuring the mortality after 7 days from the day of administration.

A value given as a limit tells only on which side of the number the result lay.

In general, inhibition refers to the percentage by which the read-out fell short of the control. On to `O=C(O)c1c2c(nc3ccc(F)cc13)-c1ccc(-c3ccc(F)cc3)cc1CC2` [Compound 1, 5,6-Dihydro-9-fluoro-3-(4-fluorophenyl)benz[c]acridine-7-carboxylic acid], for which, in the data set on spleen cells [1], the inhibition at 10 µM was determined as 98.1% and the inhibition at 0.1 µM amounted to 69.2%. Further, the inhibition at 1 µM with spleen cells [2] was determined as 93.5%.

With `O=C(O)c1c2c(nc3ccc(F)cc13)-c1ccc(-c3ccc(F)cc3F)cc1CC2` [Compound 2, 3-(2,4-Difluorophenyl)-5,6-dihydro-9-fluorobenz [c]acridine-7-carboxylic acid], in the data set on spleen cells [1], the inhibition at 10 µM came out at 98% and the inhibition at 0.1 µM came to 86.7%. In the data set on spleen cells [2], the inhibition at 1 µM stood at 96.3%.

With `O=C(O)c1c2c(nc3ccc(F)cc13)-c1ccc(-c3c(F)cccc3F)cc1CC2` [Compound 3, 3-(2,6-Difluorophenyl)-5,6-dihydro-9-fluorobenz[c]acridine-7-carboxylic acid], in the data set on spleen cells [1], the inhibition at 10 µM was found to be 99.7% and the inhibition at 0.1 µM is 68.9%. Further, the inhibition at 1 µM with spleen cells [2] is 99.4%. Further, the “MLD (minimum lethal dose)” value in the data set on dd mice (i.p.) is given as over 100. For the same compound, the “MLD (minimum lethal dose)” value with dd mice (p.o.) is over 300.

`O=C(O)c1c2c(nc3ccc(F)cc13)-c1ccc(-c3cccs3)cc1CC2` [Compound 4, 5,6-Dihydro-9-fluoro-3-(2-thienyl)benz[c]acridine-7-carboxylic acid]: in the data set on spleen cells [1], the inhibition at 10 µM turned out to be 99.8% and the inhibition at 0.1 µM amounted to 88.4%. Further, the inhibition at 1 µM in the data set on spleen cells [2] was determined as 99.2%. The “MLD (minimum lethal dose)” value with dd mice (i.p.) is reported as over 100. Further, the “MLD (minimum lethal dose)” value with dd mice (p.o.) is over 300.

In the case of `O=C(O)c1c2c(nc3ccc(F)cc13)-c1cc(F)c(-c3ccccc3F)cc1CCC2` [Compound 13, 2,10-Difluoro-6,7-dihydro-3-(2-fluorophenyl)-5H-benzo[6,7]cyclohepta[1,2-b]quinoline-8-carboxylic acid], in the data set on spleen cells [1], the inhibition at 10 µM worked out at 95.2% and the inhibition at 0.1 µM amounted to 82.4%. In the data set with spleen cells [2], the inhibition at 1 µM turned out to be 95.7%.

Regarding `O=C(O)c1c2c(nc3ccc(F)cc13)-c1cc(F)c(-c3ccccc3)cc1CC2` [Compound 16, 2,9-Difluoro-5,6-dihydro-3-phenylbenz[c]acridine-7-carboxylic acid], in the data set on spleen cells [1], the inhibition at 0.1 µM was 88.5% and the inhibition at 0.01 µM came to 56.8%. Besides, the inhibition at 1 µM with spleen cells [2] was 94.1%.

With `O=C(O)c1c2c(nc3ccc(F)cc13)-c1cc(F)c(-c3ccccc3F)cc1CC2` [Compound 17, 2,9-Difluoro-5,6-dihydro-3-(2-fluorophenyl)benz[c]acridine-7-carboxylic acid], in the data set on spleen cells [1], the inhibition at 0.1 µM worked out at 82.5% and the inhibition at 0.01 µM came to 59.8%. For the same compound, in the data set on spleen cells [2], the inhibition at 1 µM amounted to 91%.

In the case of `O=C(O)c1c2c(nc3ccc(F)cc13)-c1cc(F)c(-c3ccccc3)cc1CCC2` [Compound 28, 2,10-Difluoro-6,7-dihydro-3-phenyl-5H-benzo[6,7]cyclohepta[1,2-b]quinoline-8-carboxylic acid], in the data set with spleen cells [1], the inhibition at 0.1 µM is 90.1% and the inhibition at 0.01 µM was 73.6%. For the same compound, the inhibition at 1 µM in the data set on spleen cells [2] is 93.6%. Also, the “MLD (minimum lethal dose)” value in the data set with dd mice (i.p.) is listed as over 100. For the same compound, in the data set on dd mice (p.o.), the “MLD (minimum lethal dose)” value is listed as over 100.

For `O=C(O)c1c2c(nc3ccc(F)cc13)-c1ccc(-c3ccccc3)cc1CCC2` [Compound 46, 6,7-Dihydro-10-fluoro-3-phenyl-5H-benzo[6,7]cyclohepta[1,2-b]quinoline-8-carboxylic acid], in the data set with spleen cells [1], the inhibition at 10 µM worked out at 94.9% and the inhibition at 0.1 µM is 81.4%. In addition, the inhibition at 1 µM in the data set on spleen cells [2] turned out to be 84.8%.

In the case of `O=C(O)c1c2c(nc3ccc(F)cc13)-c1ccc(-c3ccccc3)cc1CC2` [Compound A1, 5,6-dihydro-9-fluoro-3-phenylbenz[c]acridine-7-carboxylic acid, reference compound], the inhibition at 10 µM with spleen cells [1] is 78.6%. Also, the inhibition at 1 µM with spleen cells [2] is 45.9%.

These data come from patent publication US5646283A, “Tetracyclic compound” (Kyowa Hakko Kogyo Co., Ltd., priority 1993, dated 1997).
